Converted amounts (≈) assume the structure as drawn.
Experiments:
Hep 3B2 = assay: Cytotoxicity in human Hep3B cells incubated for 48 hrs by MTT assay; assay type: functional, cell-based
HeLa = assay: Cytotoxicity in human HeLa cells incubated for 48 hrs by MTT assay; assay type: functional, cell-based
MCF7 = assay: Cytotoxicity in human MCF7 cells incubated for 48 hrs by MTT assay; assay type: functional, cell-based; details: MCF7, 48 h
Candida albicans [1] = assay: Antifungal activity against Candida albicans IOA-109; assay type: functional
Staphylococcus aureus [2] = assay: Antibacterial activity against Staphylococcus aureus at 50 ug/disc incubated for 18 hrs by disc diffusion method; assay type: functional; details: read-out: DIZ
Candida albicans [3] = assay: Antifungal activity against Candida albicans IOA-109 at 50 ug/disc incubated for 5 to 6 days by disc diffusion method; assay type: functional; details: read-out: DIZ
Candida albicans [4] = assay: Antifungal activity against Candida albicans by disc diffusion method; assay type: functional
Salmonella typhimurium = assay: Antibacterial activity against Salmonella typhimurium MTCC98 by disc diffusion method; assay type: functional, Salmonella enterica subsp. enterica serovar Typhimurium
Staphylococcus aureus [5] = assay: Antibacterial activity against Staphylococcus aureus MSSA 22 by disc diffusion method; assay type: functional
Bacillus subtilis [6] = assay: Antibacterial activity against Bacillus subtilis ATCC 6051 by disc diffusion method; assay type: functional
Escherichia coli [7] = assay: Antibacterial activity against Escherichia coli K-12 by disc diffusion method; assay type: functional
[8] = test system: Mycobacterium tuberculosis; assay: Antimycobacterial activity against Mycobacterium tuberculosis H37Rv assessed as reduction in mycobacterial growth incubated for 5 days by MTT assay; assay type: functional; details: 120 h
Mycobacterium avium = assay: Antimycobacterial activity against Mycobacterium avium; assay type: functional
Staphylococcus aureus [9] = assay: Antibacterial activity against Staphylococcus aureus MSSA 22 incubated for 24 hrs by filter paper disc method; assay type: functional
Klebsiella pneumoniae = assay: Antibacterial activity against Klebsiella pneumoniae incubated for 24 hrs by filter paper disc method; assay type: functional
Bacillus subtilis [10] = assay: Antibacterial activity against Bacillus subtilis MTCC 121 incubated for 24 hrs by filter paper disc method; assay type: functional
Candida albicans [11] = assay: Antifungal activity against Candida albicans IOA-109 incubated for 18 to 48 hrs; assay type: functional
Escherichia coli [12] = assay: Antibacterial activity against Escherichia coli K-12 incubated for 24 hrs by filter paper disc method; assay type: functional
[13] = test system: Mycobacterium tuberculosis; assay: Antimycobacterial activity against Mycobacterium tuberculosis XDR-TB; assay type: functional
[14] = test system: Mycobacterium tuberculosis; assay: Antimycobacterial activity against Mycobacterium tuberculosis MDR-TB; assay type: functional

CCCC/C=C\CCC(O)CCCCCCC1=NNC2SCC(c3ccccc3)=NN12 (stereo not given)
IC50 (Hep 3B2): 7.36 µM
IC50 (HeLa): 6 µM
IC50 (MCF7): 8.8 µM

C=CCCCCCCCCc1nc2ccccc2s1
diameter of the inhibition zone (DIZ) (Candida albicans [1]): 16 - 20 mm

CCCCCCC(O)C/C=C\CCCCCCCC1=NNC2SCC(c3ccccc3)=NN12 (stereo not given)
IC50 (Hep 3B2): 6.5 µM
IC50 (HeLa): 8.83 µM
IC50 (MCF7): 8.59 µM

C=CCCCCCCCCC1=NNC2SCC(c3ccccc3)=NN12 (stereo not given)
IC50 (Hep 3B2): 7.4 µM
IC50 (HeLa): 8.01 µM
IC50 (MCF7): 10.3 µM

CCCCCCCC/C=C\CCCCCCCC(=O)n1nnc2ccccc21
zone of inhibition at 50 µg/disc (Staphylococcus aureus [2]): 13 to 15 mm
zone of inhibition at 50 µg/disc (Candida albicans [3]): 13 to 15 mm

CCCCCC(O)/C=C\CCCCCCCc1ccc(CCCCCCC/C=C\C(O)CCCCC)o1 (stereo not given)
diameter of the inhibition zone (DIZ) (Candida albicans [4]): 27 mm

CCCCCCCC/C=C\CCCCCCCc1nc2ccccc2s1
diameter of the inhibition zone (DIZ) (Candida albicans [1]): 16 - 20 mm

CCCCCCCCCCCCCCCc1ccc(CCCCCCCCCCCCCCC)o1
diameter of the inhibition zone (DIZ) (Candida albicans [4]): 27 mm

CCCCCCC(O)C/C=C\CCCCCCCc1nnc(N)o1 (stereo not given)
diameter of the inhibition zone (DIZ) (Salmonella typhimurium): 13 - 18 mm
diameter of the inhibition zone (DIZ) (Staphylococcus aureus [5]): 13 - 18 mm
diameter of the inhibition zone (DIZ) (Bacillus subtilis [6]): 13 - 18 mm
diameter of the inhibition zone (DIZ) (Escherichia coli [7]): 13 - 18 mm

CCCCCCCCc1cn(CC(=O)OCC)nn1
MIC [8]: 0.5 µg/mL (≈ 1.87 µM)
MIC (Mycobacterium avium): 0.5 µg/mL (≈ 1.87 µM)

CCCCCCCCCCCCCCCc1nc2ccccc2s1
diameter of the inhibition zone (DIZ) (Candida albicans [1]): 16 - 20 mm

CCCCC/C=C\CCC(O)CCCCCCCC(=O)Nn1c(C)ccc1C (stereo not given)
diameter of the inhibition zone (DIZ) (Staphylococcus aureus [9]): 15 - 19 mm
diameter of the inhibition zone (DIZ) (Klebsiella pneumoniae): 15 - 19 mm
diameter of the inhibition zone (DIZ) (Bacillus subtilis [10]): 15 - 19 mm
diameter of the inhibition zone (DIZ) (Candida albicans [11]): 17 - 20 mm
diameter of the inhibition zone (DIZ) (Escherichia coli [12]): 15 - 19 mm

C=CCCCCCCCCC(=O)n1nnc2ccccc21
zone of inhibition at 50 µg/disc (Staphylococcus aureus [2]): 13 to 15 mm
zone of inhibition at 50 µg/disc (Candida albicans [3]): 13 to 15 mm

CCCCCCCCNc1cncc(C(=O)Nc2ccccc2)n1
MIC [13]: 16 to 32 µM (≈ 5.22 to 10.4 µg/mL)
MIC [14]: 16 to 32 µM (≈ 5.22 to 10.4 µg/mL)

C=CCCCCCCCCc1nnc(N)o1
diameter of the inhibition zone (DIZ) (Salmonella typhimurium): 7 - 13 mm
diameter of the inhibition zone (DIZ) (Staphylococcus aureus [5]): 7 - 13 mm
diameter of the inhibition zone (DIZ) (Bacillus subtilis [6]): 7 - 13 mm
diameter of the inhibition zone (DIZ) (Escherichia coli [7]): 7 - 13 mm
